Experimental data taken from patent US10590140B2, “Tetrahydropyrimidodiazepine and dihydropyridodiazepine compounds for treating pain and pain related conditions” (ESTEVE PHARMACEUTICALS, S.A., priority 2016, dated 2020).
Read-outs that look alike come from different tables or passages of the source.

How the values were obtained:
[1] = molecular target: human α2δ-1 subunit of Cav2.2 calcium channel (Homo sapiens (Human), UniProt P54289); test: Binding assay to human α2δ-1 subunit of Cav2.2 calcium channel ([3H]-Gabapentin); conditions: read-out: Ki (nM) α2δ-1
Chain of human α2δ-1 subunit of Cav2.2 calcium channel (P54289 25-1103): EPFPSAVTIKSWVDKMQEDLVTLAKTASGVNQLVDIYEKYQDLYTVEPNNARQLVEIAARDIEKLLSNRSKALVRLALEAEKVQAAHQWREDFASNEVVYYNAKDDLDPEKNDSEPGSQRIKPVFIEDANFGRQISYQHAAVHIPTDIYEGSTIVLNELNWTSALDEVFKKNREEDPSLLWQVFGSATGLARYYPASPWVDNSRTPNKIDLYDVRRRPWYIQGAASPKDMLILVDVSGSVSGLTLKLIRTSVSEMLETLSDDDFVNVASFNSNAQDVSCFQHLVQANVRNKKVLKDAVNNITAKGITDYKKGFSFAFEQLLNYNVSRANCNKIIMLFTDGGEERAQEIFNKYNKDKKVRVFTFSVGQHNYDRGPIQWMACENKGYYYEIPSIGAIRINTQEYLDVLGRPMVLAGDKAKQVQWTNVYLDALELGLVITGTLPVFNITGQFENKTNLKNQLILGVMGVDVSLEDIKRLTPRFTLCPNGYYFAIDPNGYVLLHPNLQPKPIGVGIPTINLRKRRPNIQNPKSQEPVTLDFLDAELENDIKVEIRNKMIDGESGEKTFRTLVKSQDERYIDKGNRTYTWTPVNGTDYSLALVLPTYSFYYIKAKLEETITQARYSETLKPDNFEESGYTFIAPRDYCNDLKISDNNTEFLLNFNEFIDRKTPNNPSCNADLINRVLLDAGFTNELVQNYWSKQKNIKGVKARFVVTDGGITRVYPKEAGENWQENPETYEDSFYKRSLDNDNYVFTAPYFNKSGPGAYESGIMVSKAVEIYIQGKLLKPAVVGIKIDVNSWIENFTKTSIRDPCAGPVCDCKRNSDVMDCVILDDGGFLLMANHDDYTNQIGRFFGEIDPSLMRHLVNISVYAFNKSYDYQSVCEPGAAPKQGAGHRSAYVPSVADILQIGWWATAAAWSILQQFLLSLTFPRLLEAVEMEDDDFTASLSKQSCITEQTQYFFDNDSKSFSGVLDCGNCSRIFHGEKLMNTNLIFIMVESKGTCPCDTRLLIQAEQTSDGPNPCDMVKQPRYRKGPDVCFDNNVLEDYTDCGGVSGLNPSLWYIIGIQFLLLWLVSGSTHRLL
Procedure, shortened: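 Radioactivity on dried GF/C filters quantified by scintillation after filtration and three cold Tris-HCl (pH 7.4) washes. Incubation ran 60 min at 27° C with [3H]-gabapentin; 10 μM pregabalin gave nonspecific binding.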

[2] = molecular target: human norepinephrine transporter (NET) (Homo sapiens (Human), UniProt P23975); test: Binding assay to human norepinephrine transporter (NET) ([3H]-Nisoxetin); conditions: Table 2, dual compounds; [3H]-Nisoxetin binding
Chain of human norepinephrine transporter (NET) (P23975 whole entry): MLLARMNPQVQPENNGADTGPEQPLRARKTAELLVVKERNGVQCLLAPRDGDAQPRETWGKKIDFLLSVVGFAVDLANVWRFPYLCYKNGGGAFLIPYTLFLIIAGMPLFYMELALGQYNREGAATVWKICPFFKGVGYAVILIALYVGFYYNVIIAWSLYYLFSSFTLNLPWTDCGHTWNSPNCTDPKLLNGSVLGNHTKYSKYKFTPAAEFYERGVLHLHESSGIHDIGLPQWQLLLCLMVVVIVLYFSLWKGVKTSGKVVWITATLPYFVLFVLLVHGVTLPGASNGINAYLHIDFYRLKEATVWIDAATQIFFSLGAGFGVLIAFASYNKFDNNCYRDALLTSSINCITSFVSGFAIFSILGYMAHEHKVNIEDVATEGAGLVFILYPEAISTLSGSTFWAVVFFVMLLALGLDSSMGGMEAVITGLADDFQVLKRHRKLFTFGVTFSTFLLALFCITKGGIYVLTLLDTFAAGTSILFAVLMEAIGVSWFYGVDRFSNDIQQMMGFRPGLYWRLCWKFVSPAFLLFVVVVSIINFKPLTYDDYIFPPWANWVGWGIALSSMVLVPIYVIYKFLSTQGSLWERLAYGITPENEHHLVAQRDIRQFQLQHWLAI
Procedure, shortened: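 NET-enriched membranes (5 μg) incubated with 5 nM [3H]-nisoxetin in 50 mM Tris-HCl, 120 mM NaCl, 5 mM KCl, pH 7.4, 60 min at 4 °C. Bound ligand separated by filtration on PEI-soaked GF/C and counted by scintillation; nonspecific binding defined with 1 μM competitor.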

[3] = Table 2, dual compounds, [3H]-Gabapentin binding
[4] = binding to α2δ-1, [3H]-Gabapentin

Structure (SMILES) | Ki [1, 3] [nM] | Ki [1, 4] [nM] | Ki [2] [nM]
CCNc1ncc2c(n1)N(C)CCN(c1cccc(OCCN(C)CCc3ccccc3)c1)C2=O [Example 265, 2-(ethylamino)-9-methyl-6-(3-(2-(methyl(phenethyl)amino)ethoxy)phenyl)-6,7,8,9-tetrahydro-5H-pyrimido[4,5-e][1,4]diazepin-5-one] | 100 to 500 | 100 to 500 | 100 to 500
CCNc1ncc2c(n1)N(C)CCN(Cc1ccc(COC(CNC)c3ccccc3)cc1)C2=O (stereo not drawn) [Example 413, 2-(ethylamino)-9-methyl-6-(4-((2-(methylamino)-1-phenylethoxy)methyl)benzyl)-6,7,8,9-tetrahydro-5H-pyrimido[4,5-e][1,4]diazepin-5-one] | 500 to 3000 | 500 to 3000 | 100 to 500
CNCCC(OCc1cccc(CN2CCN(C)c3nc(C)ncc3C2=O)c1)c1ccccc1 (stereo not drawn) [Example 423, 2,9-dimethyl-6-(3-((3-(methylamino)-1-phenylpropoxy)methyl)benzyl)-6,7,8,9-tetrahydro-5H-pyrimido[4,5-e][1,4]diazepin-5-one] | > 3000 | > 3000 | 100 to 500
CCNc1ncc2c(n1)N(C)CCN(c1cccc(CO[C@@H](CCN(C)C)c3ccccc3)c1)C2=O [Example 237, (S)-6-(3-((3-(dimethylamino)-1-phenylpropoxy)methyl)phenyl)-2-(ethylamino)-9-methyl-6,7,8,9-tetrahydro-5H-pyrimido[4,5-e][1,4]diazepin-5-one] | 500 to 3000 | 500 to 3000 | > 1000
CCNc1ncc2c(n1)N(C)CCN(Cc1cccc(COC(CCNC)c3ccccc3)c1)C2=O (stereo not drawn) [Example 406, 2-(ethylamino)-9-methyl-6-(3-((3-(methylamino)-1-phenylpropoxy)methyl)benzyl)-6,7,8,9-tetrahydro-5H-pyrimido[4,5-e][1,4]diazepin-5-one] | > 3000 | > 3000 | 100 to 500
CCNc1ncc2c(n1)N(C)CCN(Cc1ccc(OC(CNC)c3ccccc3)cc1)C2=O (stereo not drawn) [Example 201, 2-(ethylamino)-9-methyl-6-(4-(2-(methylamino)-1-phenylethoxy)benzyl)-6,7,8,9-tetrahydro-5H-pyrimido[4,5-e][1,4]diazepin-5-one] | > 3000 | > 3000 | < 100
CCNc1ncc2c(n1)N(C)CCN(c1cccc(C3CCN(CCc4ccccc4)CC3)c1)C2=O [Example 261, 2-(ethylamino)-9-methyl-6-(3-(1-phenethylpiperidin-4-yl)phenyl)-6,7,8,9-tetrahydro-5H-pyrimido[4,5-e][1,4]diazepin-5-one] | 100 to 500 | 100 to 500 | 100 to 500
CCNc1ncc2c(n1)N(C)CCN(c1cccc(CO[C@H](CCNC)c3ccccc3)c1)C2 [Example 203, (R)—N-ethyl-9-methyl-6-(3-((3-(methylamino)-1-phenylpropoxy)methyl)phenyl)-6,7,8,9-tetrahydro-5H-pyrimido[4,5-e][1,4]diazepin-2-amine] | 500 to 3000 | 500 to 3000 | 500 to 1000
CCNc1ncc2c(n1)N(C)CCN(c1ccc(COC(CCNC)c3cccs3)cc1)C2=O (stereo not drawn) [Example 348, 2-(ethylamino)-9-methyl-6-(4-((3-(methylamino)-1-(thiophen-2-yl)propoxy)methyl)phenyl)-6,7,8,9-tetrahydro-5H-pyrimido[4,5-e][1,4]diazepin-5-one] | > 3000 | > 3000 | 100 to 500
CNCC[C@@H](Oc1ccc(CN2CCN(C)c3ncncc3C2=O)cc1)c1ccccc1 [Example 434, (R)-9-methyl-6-(4-(3-(methylamino)-1-phenylpropoxy)benzyl)-6,7,8,9-tetrahydro-5H-pyrimido[4,5-e][1,4]diazepin-5-one] | > 3000 | > 3000 | 100 to 500
CCNc1ncc2c(n1)N(C)CCN(c1cccc(OC(CCNC)c3cccnc3)c1)C2=O (stereo not drawn) [Example 194, 2-(ethylamino)-9-methyl-6-(3-(3-(methylamino)-1-(pyridin-3-yl)propoxy)phenyl)-6,7,8,9-tetrahydro-5H-pyrimido[4,5-e][1,4]diazepin-5-one] | 500 to 3000 | 500 to 3000 | > 1000
CCNc1ncc2c(n1)N(C)CCN(Cc1cccc(COC(CNC)c3ccccc3)c1)C2=O (stereo not drawn) [Example 411, 2-(ethylamino)-9-methyl-6-(3-((2-(methylamino)-1-phenylethoxy)methyl)benzyl)-6,7,8,9-tetrahydro-5H-pyrimido[4,5-e][1,4]diazepin-5-one] | > 3000 | > 3000 | 500 to 1000
CNCCC(OCc1ccc(CN2CCN(C)c3nc(SC)ncc3C2=O)cc1)c1ccccc1 (stereo not drawn) [Example 368, 9-methyl-6-(4-((3-(methylamino)-1-phenylpropoxy)methyl)benzyl)-2-(methylthio)-6,7,8,9-tetrahydro-5H-pyrimido[4,5-e][1,4]diazepin-5-one] | > 3000 | > 3000 | 100 to 500
CNCCC(OCc1cccc(N2CCN(C)c3nc(NCc4ccccc4)ncc3C2=O)c1)c1ccccc1 (stereo not drawn) [Example 335, 2-(benzylamino)-9-methyl-6-(3-((3-(methylamino)-1-phenylpropoxy)methyl)phenyl)-6,7,8,9-tetrahydro-5H-pyrimido[4,5-e][1,4]diazepin-5-one] | 500 to 3000 | 500 to 3000 | < 100
CNCCC(Oc1ccc(N2CCN(C)c3nc(SC)ncc3C2=O)cc1)c1ccccc1 (stereo not drawn) [Example 316, 9-methyl-6-(4-(3-(methylamino)-1-phenylpropoxy)phenyl)-2-(methylthio)-6,7,8,9-tetrahydro-5H-pyrimido[4,5-e][1,4]diazepin-5-one] | > 3000 | > 3000 | 500 to 1000
CNCC[C@H](Oc1ccc(CN2CCN(C)c3nc(N(C)C)ncc3C2=O)cc1)c1cccs1 [Example 419, (S)-2-(dimethylamino)-9-methyl-6-(4-(3-(methylamino)-1-(thiophen-2-yl)propoxy)benzyl)-6,7,8,9-tetrahydro-5H-pyrimido[4,5-e][1,4]diazepin-5-one] | 100 to 500 | 100 to 500 | 100 to 500
CCNc1ncc2c(n1)N(C)CCN(c1cccc(-n3cc(CN4CCCCC4)nn3)c1)C2=O [Example 281, 2-(ethylamino)-9-methyl-6-(3-(4-(piperidin-1-ylmethyl)-1H-1,2,3-triazol-1-yl)phenyl)-6,7,8,9-tetrahydro-5H-pyrimido[4,5-e][1,4]diazepin-5-one] | 100 to 500 | 100 to 500 | 100 to 500

Continued, values first:

Ki [1, 3] [nM] | Ki [1, 4] [nM] | Ki [2] [nM] | Structure (SMILES)
500 to 3000 | 500 to 3000 | 500 to 1000 | CNCC[C@@H](OCc1cccc(N2CCN(C)c3nc(NC)ncc3C2=O)c1)c1ccccc1 [Example 197, (R)-9-methyl-2-(methylamino)-6-(3-((3-(methylamino)-1-phenylpropoxy)methyl)phenyl)-6,7,8,9-tetrahydro-5H-pyrimido[4,5-e][1,4]diazepin-5-one]
> 3000 | > 3000 | < 100 | CNCCC(OCc1ccc(N2CCN(C)c3nc(C)ncc3C2=O)cc1)c1ccccc1 (stereo not drawn) [Example 353, 2,9-dimethyl-6-(4-((3-(methylamino)-1-phenylpropoxy)methyl)phenyl)-6,7,8,9-tetrahydro-5H-pyrimido[4,5-e][1,4]diazepin-5-one]
500 to 3000 | 500 to 3000 | > 1000 | CCNc1ncc2c(n1)N(C)CCN(c1cccc(COC(CNC)c3ccccc3)c1)C2=O (stereo not drawn) [Example 225, 2-(Ethylamino)-9-methyl-6-(3-((2-(methylamino)-1-phenylethoxy)methyl)phenyl)-6,7,8,9-tetrahydro-5H-pyrimido[4,5-e][1,4]diazepin-5-one]
100 to 500 | 500 to 3000 | 100 to 500 | CNCC[C@@H](OCc1cccc(N2CCN(C)c3nc(C)ncc3C2=O)c1)c1ccccc1 [Example 206, (R)-2,9-dimethyl-6-(3-((3-(methylamino)-1-phenylpropoxy)methyl)phenyl)-6,7,8,9-tetrahydro-5H-pyrimido[4,5-e][1,4]diazepin-5-one]
> 3000 | > 3000 | 100 to 500 | CNCC[C@H](OCc1cccc(N2CCN(C)c3nc(SC)ncc3C2=O)c1)c1ccccc1 [Example 165, (S)-9-methyl-6-(3-((3-(methylamino)-1-phenylpropoxy)methyl)phenyl)-2-(methylthio)-6,7,8,9-tetrahydro-5H-pyrimido[4,5-e][1,4]diazepin-5-one]
500 to 3000 | 500 to 3000 | 500 to 1000 | CNCC[C@@H](OCc1cccc(N2CCN(C)c3nc(N(C)C)ncc3C2=O)c1)c1ccccc1 [Example 196, (R)-2-(dimethylamino)-9-methyl-6-(3-((3-(methylamino)-1-phenylpropoxy)methyl)phenyl)-6,7,8,9-tetrahydro-5H-pyrimido[4,5-e][1,4]diazepin-5-one]
500 to 3000 | 500 to 3000 | 100 to 500 | CNCC[C@@H](OCc1cccc(N2CCN(C)c3nc(OC)ncc3C2=O)c1)c1ccccc1 [Example 204, (R)-2-methoxy-9-methyl-6-(3-((3-(methylamino)-1-phenylpropoxy)methyl)phenyl)-6,7,8,9-tetrahydro-5H-pyrimido[4,5-e][1,4]diazepin-5-one]
500 to 3000 | 100 to 500 | 500 to 1000 | CNCC[C@@H](OCc1cccc(N2CCN(C)c3nc(N)ncc3C2=O)c1)c1ccccc1 [Example 195, (R)-2-amino-9-methyl-6-(3-((3-(methylamino)-1-phenylpropoxy)methyl)phenyl)-6,7,8,9-tetrahydro-5H-pyrimido[4,5-e][1,4]diazepin-5-one]
